Structures can show the parent of a compound that is named as a salt.
Assays:
HepG2 = experiment: ATP content test (intracellular ATP content, ATPLite); format: cell-based, Human; settings: HepG2, 30 μM, culture for one day, relative value to control (without addition of drug)
Experimental: (§1) Human liver cancer-derived cell line HepG2 (ATCC No. HB-8065) was passaged using Dulbecco's Modified Eagle medium (DMEM; Invitrogen) containing 10% fetal bovine serum (FBS; TRACE SCIENTIFIC LTD.), 1 mmol/L sodium pyruvate (Invitrogen), 2 mmol/L L-glutamine (Invitrogen), 50 IU/mL penicillin (Invitrogen) and 50 μg/mL streptomycin (Invitrogen) at 5% CO2, 37° C. The test reagent was prepared with DMSO to 10 mM, and further diluted with DMEM medium containing 0.5% FBS, 1 mmol/L sodium pyruvate, 2 mmol/L L-glutamine, 50 IU/mL penicillin and 50 μg/mL streptomycin to a final concentration of DMSO of 0.1%. HepG2 (2×10^4 cells/well) was cultured on a 96 well white plate (Costar) with the test reagent at 5% CO2, 37° C. After culture for one day, the intracellular ATP content was measured using ATPLite™ (PerkinElmer Life Sciences). The results are shown in Table 26 (n≧3, average value±SD) as a relative value (%) to control (without addition of drug) at 30 μM.

[1] = molecular target: T1, proton, potassium-adenosine triphosphatase (H+,K+-ATPase) (Sus scrofa, UniProt P19156); experiment: Proton potassium-adenosine triphosphatase (H+,K+-ATPase) inhibitory activity test; format: biochemical; settings: swine gastric microsomal fraction, pH 6.5, 37° C.
T1 construct: a gastric mucous membrane microsomal fraction was prepared from the stomach of swine; from tissue; host or cells: swine stomach, gastric mucous membrane microsomal fraction
T1 sequence (P19156 2-1034 limits assumed): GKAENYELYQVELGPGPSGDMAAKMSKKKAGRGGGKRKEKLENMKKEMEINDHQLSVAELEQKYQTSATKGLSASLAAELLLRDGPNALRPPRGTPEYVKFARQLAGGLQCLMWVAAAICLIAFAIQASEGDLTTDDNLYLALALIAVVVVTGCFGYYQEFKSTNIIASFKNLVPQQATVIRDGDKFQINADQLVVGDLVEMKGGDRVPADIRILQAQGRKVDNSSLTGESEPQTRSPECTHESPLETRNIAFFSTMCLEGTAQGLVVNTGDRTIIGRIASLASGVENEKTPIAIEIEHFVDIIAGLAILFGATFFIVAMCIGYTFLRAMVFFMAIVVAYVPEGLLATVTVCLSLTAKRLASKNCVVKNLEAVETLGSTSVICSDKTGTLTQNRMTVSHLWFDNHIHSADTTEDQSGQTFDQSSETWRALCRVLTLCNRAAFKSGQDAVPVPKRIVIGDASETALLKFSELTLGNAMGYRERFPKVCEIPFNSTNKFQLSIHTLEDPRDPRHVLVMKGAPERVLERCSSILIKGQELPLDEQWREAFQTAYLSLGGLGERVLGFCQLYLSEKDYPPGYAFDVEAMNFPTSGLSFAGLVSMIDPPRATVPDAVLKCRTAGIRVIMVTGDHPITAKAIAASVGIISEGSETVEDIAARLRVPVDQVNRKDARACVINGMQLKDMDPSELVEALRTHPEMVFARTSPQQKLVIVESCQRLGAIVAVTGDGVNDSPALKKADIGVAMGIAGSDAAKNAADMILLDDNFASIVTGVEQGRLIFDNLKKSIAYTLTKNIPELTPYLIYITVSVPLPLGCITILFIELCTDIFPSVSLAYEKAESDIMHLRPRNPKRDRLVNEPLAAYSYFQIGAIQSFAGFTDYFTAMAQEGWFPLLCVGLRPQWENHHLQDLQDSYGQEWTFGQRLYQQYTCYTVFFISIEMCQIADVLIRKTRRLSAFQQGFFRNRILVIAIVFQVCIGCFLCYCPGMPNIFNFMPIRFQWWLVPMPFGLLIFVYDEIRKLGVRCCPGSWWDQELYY
T1 sequence (P18434 whole entry partner): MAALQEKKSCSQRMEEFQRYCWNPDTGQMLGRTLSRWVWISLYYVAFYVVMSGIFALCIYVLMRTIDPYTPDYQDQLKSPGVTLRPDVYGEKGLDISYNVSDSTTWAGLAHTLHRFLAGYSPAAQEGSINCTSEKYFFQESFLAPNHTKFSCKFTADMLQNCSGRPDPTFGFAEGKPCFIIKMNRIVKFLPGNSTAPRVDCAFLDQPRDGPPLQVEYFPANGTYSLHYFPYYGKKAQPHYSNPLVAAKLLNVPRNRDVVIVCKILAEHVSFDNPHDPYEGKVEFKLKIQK
Experimental: Proton Potassium-Adenosine Triphosphatase (H^+,K^+-ATPase) Inhibitory Activity Test
According to the method [Biochim. Biophys. Acta, 728, 31 (1983)] of Wallmark et al., a gastric mucous membrane microsomal fraction was prepared from the stomach of swine. First, the stomach was removed, washed with tap water, immersed in 3 mol/L brine, and the surface of the mucous membrane was wiped with a paper towel. The gastric mucous membrane was detached, chopped, and homogenized in a 0.25 mol/L saccharose solution (pH 6.8) containing 1 mmol/L EDTA and 10 mmol/L tris-hydrochloric acid using polytron (Kinematica). The obtained homogenate was centrifuged at 20,000×g for 30 min and the supernatant was centrifuged at 100,000×g for 90 min. The precipitate was suspended in 0.25 mol/L saccharose solution, superimposed on a 0.25 mol/L saccharose solution containing 7.5% Ficoll, and centrifuged at 100,000×g for 5 hr. The fraction containing the interface between the both layers was recovered, and centrifugally washed with 0.25 mol/L saccharose solution.
The obtained microsomal fraction was used as a proton, potassium-adenosine triphosphatase standard product.
To 40 μL of a 50 mmol/L HEPES-tris buffer (5 mmol/L magnesium chloride, 10 mmol/L potassium chloride, 10 μmol/L valinomycin, pH=6.5) containing 2.5 μg/mL (based on the protein concentration) of the enzyme standard product was added a test compound (5 μL) dissolved in a 10% aqueous dimethyl sulfoxide solution, and the mixture was incubated at 37° C. for 30 min. The enzyme reaction was started by adding 5 μL of a 2 mmol/L adenosine triphosphate tris salt solution (50 mmol/L HEPES-tris buffer (5 mmol/L magnesium chloride, pH 6.5)). The enzyme reaction was carried out at 37° C. for 20 min, and 15 μL of a malachite green solution (0.12% malachite green solution in sulfuric acid (2.5 mol/L), 7.5% ammonium molybdate and 11% Tween 20 were mixed at a ratio of 100:25:2) was added to quench the reaction. After allowing to stand at room temperature for 15 min, the resulting reaction product of inorganic phosphorus with malachite green was calorimetrically determined at a wavelength of 610 nm. In addition, the amount of the inorganic phosphoric acid in the reaction solution free of potassium chloride was measured in the same manner, which was subtracted from the inorganic phosphoric acid amount in the presence of potassium chloride to determine the proton, potassium-adenosine triphosphatase activity. The inhibitory rate (%) was determined from the activity value of the control and the activity values of various concentrations of the test compound, and the 50% inhibitory concentration (IC50) of the proton, potassium-adenosine triphosphatase was determined.

Caspase-3/7 = Caspase-3/7 activity test (Caspase-Glo 3/7 Assay); format: cell-based, Human; settings: HepG2, 30 μM, culture for one day, relative to maximum with Staurosporine (100%) and no test reagent (0%)
Experimental: as §1
Caspase-3/7 Activity Test
The Caspase-3/7 activity in the cells cultured for one day by a method similar to that in Experimental Example 2 was measured using Caspase-Glo 3/7 Assay (Promega). The results are shown in Table 26 (n≧3, average value±SD) as relative activity (%) of each reagent based on the maximum value of Caspase-3/7 activity when exposed to Staurosporine (100%), and the activity without addition of a test reagent (0%).

Row | ATP content (%, 30 μM) (HepG2) [%] | IC50 [1] [nM] | Caspase-3/7 activity (%, 30 μM) (Caspase-3/7) [%] | SMILES
1 | 96.8 | 65 | −0.4 | CNCc1cc(-c2cccnc2Cl)n(S(=O)(=O)c2cccc(C#N)c2)c1.O=C(O)/C=C/C(=O)O [Example 54, 3-({2-(2-chloropyridin-3-yl)-4-[(methylamino)methyl]-1H-pyrrol-1-yl}sulfonyl)benzonitrile fumarate]
2 | 88.1 | 26 | −1.3 | CNCc1cc(-c2cccnc2F)n(S(=O)(=O)c2ccccc2)c1.O=C(O)/C=C/C(=O)O [Example 1, 1-[5-(2-fluoropyridin-3-yl)-1-(phenylsulfonyl)-1H-pyrrol-3-yl]-N-methylmethanamine fumarate]
3 | 97.3 | 26 | −0.6 | CNCc1cn(S(=O)(=O)c2ccccc2)c(-c2cccnc2F)c1F [Example 30, 1-[4-fluoro-5-(2-fluoropyridin-3-yl)-1-(phenylsulfonyl)-1H-pyrrol-3-yl]-N-methylmethanamine 0.5 fumarate]
4 | 93.4 | 130 | −0.4 | CNCc1cn(S(=O)(=O)c2cccnc2)c(-c2cccnc2Cl)c1F.O=C(O)/C=C/C(=O)O [Example 38, 1-[5-(2-chloropyridin-3-yl)-4-fluoro-1-(pyridin-3-ylsulfonyl)-1H-pyrrol-3-yl]-N-methylmethanamine fumarate]
5 | 88.1 | 93 | −0.5 | CNCc1cn(S(=O)(=O)c2ccoc2C)c(-c2cccnc2F)c1F.Cl [Example 72, 1-{4-fluoro-5-(2-fluoropyridin-3-yl)-1-[(2-methylfuran-3-yl)sulfonyl]-1H-pyrrol-3-yl}-N-methylmethanamine hydrochloride]

Reference: patent US8933105B2, “Pyrrole compounds” (Takeda Pharmaceutical Company Limited, priority 2007, dated 2015)
